# Target: T1, IDO1 (Homo sapiens, UniProt P14902)
# T1 construct: HeLa cells were treated with a test compound in the presence of IFNγ, which induces IDO1 expression; endogenous in cells; host or cells: H1-HeLa cells (ATCC #CRL-1958), induced with IFNγ
# Test: Cell-based (HeLa) assay for measurement of IDO1 inhibition (kynurenine levels in supernatant after IFNγ induction)
# Details: H1-HeLa cells, IFNγ-induced IDO1, 48 hour incubation, kynurenine absorbance at 480 nm; geometric mean of a minimum of four determinations
# Summary of the method: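 HeLa cells (1,250/well, DMEM/10% FBS) exposed to compound (0.5% DMSO) with IFNγ (added as 50 ng/mL solution) for 48 h. Supernatant kynurenine measured after TCA treatment (60 °C, 30 min) with p-dimethylaminobenzaldehyde, A480. EC50 from four-parameter fit normalised to ±IFNγ controls; geometric mean of ≥4 runs.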
# T1 sequence (P14902 whole entry): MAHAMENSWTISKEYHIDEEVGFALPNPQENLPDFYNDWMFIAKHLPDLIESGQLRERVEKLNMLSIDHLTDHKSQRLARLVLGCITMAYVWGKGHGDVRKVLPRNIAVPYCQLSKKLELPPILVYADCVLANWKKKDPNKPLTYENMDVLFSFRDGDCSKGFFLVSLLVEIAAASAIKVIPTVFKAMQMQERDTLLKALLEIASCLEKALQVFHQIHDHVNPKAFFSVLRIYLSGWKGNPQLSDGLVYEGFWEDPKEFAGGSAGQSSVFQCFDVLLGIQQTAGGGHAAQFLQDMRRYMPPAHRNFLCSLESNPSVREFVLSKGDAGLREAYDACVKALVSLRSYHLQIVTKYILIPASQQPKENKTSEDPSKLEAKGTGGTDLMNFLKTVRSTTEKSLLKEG
row,EC50,SMILES
1,23.3 nM,"O=C(Nc1ccc(F)cc1)c1cc(-c2cccn3c(-c4cccc(F)c4)ncc23)ccc1C(F)(F)F [Example 39, N-(4-fluorophenyl)-5-(3-(3-fluorophenyl)imidazo[1,5-a]pyridin-8-yl)-2-(trifluoromethyl)benzamide]"
2,118 nM,"Cc1ncc(-c2cccn3c(-c4cccc(F)c4F)nc(Cl)c23)cc1C(=O)Nc1ccc(F)cc1 [Example 79, 5-(1-chloro-3-(2,3-difluorophenyl)imidazo[1,5-a]pyridin-8-yl)-N-(4-fluorophenyl)-2-methylnicotinamide]"
3,79.5 nM,"Cc1ncc(-c2cccn3c(-c4cccc(F)c4F)ncc23)cc1C(=O)Nc1ccc(OC(F)F)cc1 [Example 67, N-(4-(difluoromethoxy)phenyl)-5-(3-(2,3-difluorophenyl)imidazo[1,5-a]pyridin-8-yl)-2-methylnicotinamide]"
4,3840 nM,"Cc1nnc(-c2ncc3c(-c4ccc(C)c(C(=O)Nc5ccc(F)cc5)c4)cccn23)o1 [Example 2, N-(4-fluorophenyl)-2-methyl-5-(3-(5-methyl-1,3,4-oxadiazol-2-yl)imidazo[1,5-a]pyridin-8-yl)benzamide]"
5,2940 nM,"Cc1ncc(-c2cccn3c(C4CC4)ncc23)cc1C(=O)Nc1ccc(F)cc1 [Example 90, 5-(3-cyclopropylimidazo[1,5-a]pyridin-8-yl)-N-(4-fluorophenyl)-2-methylnicotinamide]"

# — patent publication US11040033B2 (Gilead Sciences, Inc., priority 2017, dated 2021)
